# Results reported in patent US10632111B2 (priority 2014, dated 2020).
# Assay: Pharmacokinetic properties in SD rats after intramuscular injection
# Details: male SD rats, i.m., 90 mg/kg (based on donepezil), oil solvent, plasma, LC/MS/MS
# From the text: Pharmacokinetic Properties of Compounds of the Present Invention Administered to Rats
# In the present embodiment, male SD rats (SPF grade), aged […] and weighing 180 to 220 g, were purchased from Shanghai Slack laboratory Animal Co., Ltd. Throughout the process of the experiment, give the rats free access to food and water.
# Adopting grouping of random grouping design, the SD rats for experiments were grouped according to gender and body weight.
# The whole blood was collected and placed on ice, followed by centrifugation at 4° C., 8000 rpm and 5 min to collect plasma The plasma was transferred to a 96-well plate and stored at −20° C. until LC-MS/MS examination. Drug concentrations in EDTA (4 mM) anticoagulated plasma of SD rats were determined using LC/MS/MS (Agilent6460). Using WinNonlin 5.2 software, calculate respective relevant pharmacokinetic parameters of each group at each time point after administration according to statistical moment theory.
# t1/2 was calculated by the formula t1/2=0.693/λz; λz is an end elimination rate constant derived from the logarithmic concentration—the straight part of the end of time curve, which can be derived from the slope of the logarithmic concentration—the straight part of the end of time curve.
smiles,measurement,setting,value
"CCCCCCC(=O)OC1=C(CC2CCN(Cc3ccccc3)CC2)Cc2cc(OC)c(OC)cc21 [Compound 3, Donepezil Heptanoate]",Cmax,measured value,44.11 ng/mL
same,Tmax,measured value,18.00 h
same,T1/2,t1/2=0.693/λz,314.18 h
